The source of these data is US20050042318A1, “Extracts from hop, methods for producing the same and their use” (priority 2001, published 2005).

In experiment [1] the test system is human breast cancer cells MCF-7. The conditions noted are these: Miranda et al. 1999; cited from earlier work.
Experiment [2] deals with ovarian cancer cell lines A-2780. To be noted: Miranda et al. 1999; cited from earlier work.
The subject of experiment [3] is colon cancer cell lines HAT-29. To be noted: Miranda et al. 1999; cited from earlier work.
Experiment [4] addresses T1, human oestrogenic receptor alpha (ER-α) (Homo sapiens, UniProt P03372).
T1 sequence (P03372 1-595): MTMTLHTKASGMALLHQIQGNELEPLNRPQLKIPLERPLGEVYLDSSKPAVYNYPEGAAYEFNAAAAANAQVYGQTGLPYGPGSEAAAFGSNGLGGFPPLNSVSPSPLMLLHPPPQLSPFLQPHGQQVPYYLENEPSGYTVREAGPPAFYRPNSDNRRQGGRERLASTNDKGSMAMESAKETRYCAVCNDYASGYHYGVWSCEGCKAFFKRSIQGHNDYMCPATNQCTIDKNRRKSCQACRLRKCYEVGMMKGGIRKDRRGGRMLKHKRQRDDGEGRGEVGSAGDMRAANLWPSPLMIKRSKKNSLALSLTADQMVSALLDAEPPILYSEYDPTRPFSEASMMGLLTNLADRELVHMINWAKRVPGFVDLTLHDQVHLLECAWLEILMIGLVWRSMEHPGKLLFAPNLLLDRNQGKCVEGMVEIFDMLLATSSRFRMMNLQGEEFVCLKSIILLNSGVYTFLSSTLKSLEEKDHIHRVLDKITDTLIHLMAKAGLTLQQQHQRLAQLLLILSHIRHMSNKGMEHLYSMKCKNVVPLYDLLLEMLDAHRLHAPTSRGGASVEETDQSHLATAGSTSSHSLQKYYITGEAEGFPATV
The experiment is described as follows: competitive receptor binding assay, displacement of radioactively labelled oestradiol, ER-α. To be noted: for relative potency [formula] (ratio ER-α to ER-β): head is a formula, values fit relative potency ER-α / ER-β.
Protocol: Thereby, a radioactively labelled oestradiol was initially bonded to the human oestrogen receptor and then treated with the test substance to be examined. A portion of the labelled oestradiol which corresponds to the oestrogenic potency of the sample is thus displaced. Excessive oestradiol is washed out after bonding of the complex to hydroxylapatite. The oestrogenic receptors ER-α and ER-β were commercially available as recombinant human receptors. The test preparations consisted of 1000 μl TEDG buffer (10 mM tris, 1,5 mM EDTA, 10% glycerol, pH 7.5), 5 μl receptor (200 nM), 10 μl 3H-oestradiol and 10 μl ethanol (control value), 10 μl diethylstiloestrol (100 mM, positive control) or 10 μl extract or ingredient of the extract, respectively. The preparations were carefully mixed and incubated for about 16 hours at room temperature in the dark. After incubation 250 μl hydroxylapatite (HAP) were added to absorb the proteins. During a period of incubation of 15 minutes the preparations were manually mixed with a time-lag of 5 minutes, respectively. The precipitate is separated by centrifugation at 10,000 rpm for a few seconds and the supernatant liquid is separated by pipetting. The pellet is washed three times with 1000 μl TEDG buffer, respectively, 1000 μl ethanol are added for the measurement, the mixture is slurried and transferred to a scintillation vial. After adding 9 ml scintillator liquid (Ready Safe, Beckmann) a measurement over the complete ^3H window is carried out using a Beckmann Beta-Counter.
The characterisation of the bonding capacities of the test substances results from the determination of the ED50 values taken from the dosis-effect-plots of the displacement of oestradiol.

The target in experiment [5] is T2, human oestrogenic receptor (Homo sapiens, UniProt P03372).
T2 construct: host or cells: yeast cells
T2 sequence (P03372 1-595): T1 sequence (P03372 1-595)
To be noted: Milligan et al.; cited from earlier work.

For experiment [6], the system named is osteolysis. To be noted: EP 0 679 393 B1; cited from earlier work.
Experiment [7] has as its system Ishikawa-Var-I-cells. The conditions noted are these: cited from earlier work.
Experiment [8] has as its system ovariectomised rats. The conditions noted are these: Miyamoto et al. 1998; cited from earlier work.

Consider `COc1cc(O)c(CC=C(C)C)c(O)c1C(=O)/C=C/c1ccc(O)cc1` [Xanthohumol], for which the antiproliferative activity result in experiment [1], in experiment [2] and in experiment [3] was “strong antiproliferative activity” each time. The “interaction with ER-α, in words” value in experiment [4] is “comparable activity”. Also, the “relative potency [formula] (ratio ER-α to ER-β)” value in experiment [4] is given as 0.78. The “oestrogenic activity, human oestrogenic receptor in yeast” value (“oestrogenic activity … in yeast” below) in experiment [5] is reported as “could not be detected”. The effect on osteolysis entry in experiment [6] is “inhibiting effect”. Also, in experiment [7] (Milligan et al.), the “oestrogenic activity in human endometrial carcinoma cell line Ishikawa” value is reported as “could not be detected”.

`CC(C)=CCc1c(O)cc(O)c2c1O[C@H](c1ccc(O)cc1)CC2=O`: the “relative potency [formula] (ratio ER-α to ER-β)” value in experiment [4] was determined as 2.72. Also, the “oestrogenic activity … in yeast” value in experiment [5] is recorded as “most powerful oestrogenic activity”. Moreover, in experiment [7] (Ishikawa-Var-I-cells, Milligan et al. 1999), the “oestrogenic activity in vitro, stimulating alkaline phosphatase” value is on record as “significantly more active than the phytooestrogenes known so far”. Besides, in experiment [8], the osseous density entry was “normalises” and the “weight of the uterus” value is “normalises”.

For the molecule `CC(C)=CCC/C(C)=C/Cc1c(O)cc(O)c2c1O[C@H](c1ccc(O)cc1)CC2=O` [8-geranylnaringenine], in experiment [5], the “oestrogenic activity … in yeast” value is reported as “weaker oestrogenic properties”.

Consider `COc1cc(O)c(CC=C(C)C)c2c1C(=O)CC(c1ccc(O)cc1)O2` (stereo not shown) [Isoxanthohumol, isoxanthohumol], for which the antiproliferative activity result in experiment [1], in experiment [2] and in experiment [3] was “strong antiproliferative activity” in each case. Besides, in experiment [4], the “interaction with ER-α, in words” value is on record as “comparable activity”. The “relative potency [formula] (ratio ER-α to ER-β)” value in experiment [4] is 0.54.

Take `CC(C)=CCc1c(O)c(CC=C(C)C)c2c(c1O)C(=O)C[C@@H](c1ccc(O)cc1)O2` [6,8-diprenylnaringenine]: the “oestrogenic activity … in yeast” value in experiment [5] is given as “weaker oestrogenic properties”.

Take `CC(C)=CCc1c(O)cc2c(c1O)C(=O)C[C@@H](c1ccc(O)cc1)O2`: in experiment [4], the “relative potency [formula] (ratio ER-α to ER-β)” value is recorded as 0.37. In addition, in experiment [5], the “oestrogenic activity … in yeast” value is recorded as “weaker oestrogenic properties”.
